Source: BigSolDB 2.1

COC(=O)c1nc[nH]n1
Conditions	solubility (mole fraction)
in 2-pentanone, 278.15 K	0.000862
in 2-pentanone, 283.35 K	0.000994
in 2-pentanone, 288.05 K	0.0012
in 2-pentanone, 292.55 K	0.00136
in 2-pentanone, 297.95 K	0.00165
in 2-pentanone, 302.65 K	0.00192
in 2-pentanone, 307.35 K	0.00222
in 2-pentanone, 313.05 K	0.00253
in 2-pentanone, 317.35 K	0.00285
in 3-pentanone, 278.25 K	0.000784
in 3-pentanone, 283.35 K	0.000902
in 3-pentanone, 288.05 K	0.00107
in 3-pentanone, 292.55 K	0.00127
in 3-pentanone, 298.35 K	0.00143
in 3-pentanone, 303.05 K	0.00172
in 3-pentanone, 307.35 K	0.00191
in 3-pentanone, 312.85 K	0.00224
in 3-pentanone, 317.15 K	0.00243
in MIBK, 278.25 K	0.000526
in MIBK, 283.35 K	0.000657
in MIBK, 288.05 K	0.000734
in MIBK, 292.55 K	0.000852
in MIBK, 298.35 K	0.00111
in MIBK, 303.05 K	0.00127
in MIBK, 307.35 K	0.00148
in MIBK, 312.55 K	0.00172
in MIBK, 317.05 K	0.00197
in THF, 278.15 K	0.00105
in THF, 283.05 K	0.00137
in THF, 289.05 K	0.00196
in THF, 293.25 K	0.00244
in THF, 298.35 K	0.00323
in THF, 303.05 K	0.00419
in THF, 307.35 K	0.00517
in THF, 313.85 K	0.00714
in THF, 317.95 K	0.00875
in acetone, 278.15 K	0.00153
in acetone, 283.35 K	0.00181
in acetone, 288.05 K	0.00203
in acetone, 292.55 K	0.00232
in acetone, 297.95 K	0.00286
in acetone, 302.65 K	0.0033
in acetone, 307.35 K	0.00382
in acetone, 313.25 K	0.00458
in acetone, 317.55 K	0.00508
in acetonitrile, 278.65 K	0.000843
in acetonitrile, 283.45 K	0.000993
in acetonitrile, 288.25 K	0.0012
in acetonitrile, 292.85 K	0.00142
in acetonitrile, 297.05 K	0.00168
in acetonitrile, 301.85 K	0.00206
in acetonitrile, 307.35 K	0.00245
in acetonitrile, 313.25 K	0.00305
in acetonitrile, 318.95 K	0.00384
in cyclohexanone, 278.05 K	0.00557
in cyclohexanone, 282.95 K	0.00583
in cyclohexanone, 289.05 K	0.00622
in cyclohexanone, 293.25 K	0.00657
in cyclohexanone, 298.35 K	0.00687
in cyclohexanone, 303.05 K	0.0075
in cyclohexanone, 307.35 K	0.00814
in cyclohexanone, 313.75 K	0.00888
in cyclohexanone, 317.85 K	0.00962
in cyclopentanone, 277.95 K	0.00156
in cyclopentanone, 282.85 K	0.0018
in cyclopentanone, 288.95 K	0.00219
in cyclopentanone, 293.25 K	0.00251
in cyclopentanone, 298.25 K	0.00303
in cyclopentanone, 303.05 K	0.00356
in cyclopentanone, 307.25 K	0.00417
in cyclopentanone, 313.65 K	0.0053
in cyclopentanone, 317.65 K	0.00632
in ethanol, 278.45 K	0.00142
in ethanol, 283.15 K	0.0016
in ethanol, 288.05 K	0.00204
in ethanol, 292.65 K	0.00254
in ethanol, 297.25 K	0.00305
in ethanol, 301.65 K	0.00378
in ethanol, 306.95 K	0.00464
in ethanol, 312.65 K	0.00602
in ethanol, 318.05 K	0.00759
in isobutanol, 278.65 K	0.00103
in isobutanol, 283.35 K	0.00116
in isobutanol, 288.25 K	0.00141
in isobutanol, 292.85 K	0.00182
in isobutanol, 297.05 K	0.00222
in isobutanol, 301.85 K	0.00273
in isobutanol, 307.15 K	0.00337
in isobutanol, 313.15 K	0.00439
in isobutanol, 318.65 K	0.00581
in isopropanol, 278.55 K	0.000966
in isopropanol, 283.25 K	0.00119
in isopropanol, 288.15 K	0.00146
in isopropanol, 292.75 K	0.00188
in isopropanol, 297.15 K	0.00235
in isopropanol, 301.75 K	0.00297
in isopropanol, 307.05 K	0.00389
in isopropanol, 312.85 K	0.00511
in isopropanol, 318.35 K	0.00693
in methanol, 278.45 K	0.00294
in methanol, 283.15 K	0.0033
in methanol, 288.05 K	0.00385
in methanol, 292.65 K	0.00467
in methanol, 297.25 K	0.00537
in methanol, 301.65 K	0.00645
in methanol, 306.95 K	0.00768
in methanol, 312.55 K	0.00952
in methanol, 317.85 K	0.0115
in n-butanol, 278.55 K	0.00199
in n-butanol, 283.35 K	0.00217
in n-butanol, 288.15 K	0.00246
in n-butanol, 292.75 K	0.00279
in n-butanol, 297.15 K	0.00326
in n-butanol, 301.75 K	0.00378
in n-butanol, 307.15 K	0.00476
in n-butanol, 312.95 K	0.00613
in n-butanol, 318.45 K	0.00818
in n-propanol, 278.55 K	0.00137
in n-propanol, 283.25 K	0.00153
in n-propanol, 288.15 K	0.00183
in n-propanol, 292.75 K	0.00227
in n-propanol, 297.15 K	0.00264
in n-propanol, 301.75 K	0.00325
in n-propanol, 307.05 K	0.00398
in n-propanol, 312.75 K	0.00532
in n-propanol, 318.15 K	0.0069
